Biological target: T1, aggregated amyloid beta (Aβ1-42) (Homo sapiens, UniProt P05067)
T1 construct: Aβ1-42 peptide was aggregated in vitro using the following procedure
Test: In vitro binding studies of compounds with amyloid beta: fluorescent emission spectra with and without aggregated Aβ
Conditions: fold increase at maximum emission (compound+Aβ/compound), 4 μM compound, 5 μM aggregated Aβ in 1×PBS; for Fold Increase @ 450 nm: excitation 450 nm; for Fold Increase @ 488 nm: excitation 488 nm
Experimental: The fluorescent properties and emission spectra of compounds described herein with aggregated amyloid beta (Aβ1-42) were characterized as described below.
Emission spectra for compounds described herein were collected after incubation of the compounds with and without aggregated Aβ at specific excitation wavelengths (450 nm and 488 nm) employed in standard ocular imaging equipment.
Aβ1-42 peptide was aggregated in vitro using the following procedure. Aβ42 (HFIP) was removed from the freezer and allowed to warm to room temperature, then 1 mg of Aβ42 was dissolved in 215 μL of ddH2O for about 10-20 mins at room temperature. To the resulting solution, 2 mL of ddH2O was added to provide a 100 μM stock solution. A 100 μL aliquot was sampled and frozen (non-aggregated sample). The tubes were placed in a thermoshaker at 350 rpm for 3 days. Care was taken to avoid generating bubbles. Aβ aggregation was confirmed by measuring binding to Thioflavin T (ThT). Aggregated Aβ1-42 peptide was then portioned into 150 μL aliquots and stored at −80° C.
The fluorescent emission spectra were measured as follows to determine binding of Aβ to test compounds described herein. The Shimadzu fluorimeter was turned on and allowed to warm up for ˜60 minutes. The test compounds were then removed from the −20° C. freezer and were allowed to warm to room temperature. The 100 μM aggregated Aβ solution was then removed from the −80° C. freezer and also allowed to warm to room temperature. 250 μM solutions of each test compound in DMSO were then prepared. These were then used to prepare 4 μM solutions of each test compound, with and without 5 μM aggregated Aβ in 1×PBS, in triplicates. Using a cuvette, the fluorescent emission spectra were measured for each test compound+Aβ solution, employing a DMSO/PBS solution as a blank. Each sample was tested at an excitation of 450 nm and 488 nm. Fluorescent emission spectra were then collected for each 4 μM test compound solution alone. The resulting data were used to plot intensity vs. wavelength for each emission scan.

T1 sequence (P05067 672-713 limits assumed): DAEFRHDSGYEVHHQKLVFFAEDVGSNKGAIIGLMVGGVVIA

N#C/C(=C\c1ccc2cc(N3CCCCC3)ccc2c1)C(=O)NCC(O)CO (centres unmarked) [Compound 4, (E)-2-cyano-N-(2,3-dihydroxypropyl)-3-(6-(piperidin-1-yl)naphthalen-2-yl)acrylamide, reference compound]
Fold Increase @ 450 nm: 15.28
Fold Increase @ 488 nm: 18.53

N#C/C(=C\c1ccc2cc(N3CCCC3)ccc2c1)C(=O)NCC(O)CO (centres unmarked) [Compound 5, (E)-2-cyano-N-(2,3-dihydroxypropyl)-3-(6-(pyrrolidin-1-yl)naphthalen-2-yl)acrylamide]
Fold Increase @ 450 nm: 18.18
Fold Increase @ 488 nm: 22.81

N#C/C(=C\c1ccc2ccccc2c1N1CCCCC1)C(=O)NCC(O)CO (centres unmarked) [Compound 6, (E)-2-cyano-N-(2,3-dihydroxypropyl)-3-(1-(piperidin-1-yl)naphthalen-2-yl)acrylamide]
Fold Increase @ 450 nm: 7.12
Fold Increase @ 488 nm: 17.18

N#C/C(=C\c1ccc2ccccc2c1N1CCC1)C(=O)NCC(O)CO (centres unmarked) [Compound 7, (E)-3-(1-(azetidin-1-yl)naphthalen-2-yl)-2-cyano-N-(2,3-dihydroxypropyl)acrylamide]
Fold Increase @ 450 nm: 4.31
Fold Increase @ 488 nm: 2.84

N#C/C(=C\c1ccc2cc(N3CCCCC3)ccc2c1)C(=O)CC[C@H](O)CO [Compound 8, (S,E)-6,7-dihydroxy-3-oxo-2-((6-(piperidin-1-yl)naphthalen-2-yl)methylene)heptanenitrile]
Fold Increase @ 450 nm: 9.48
Fold Increase @ 488 nm: 19.60

N#C/C(=C\c1ccc2cc(N3CCCCC3)ccc2c1)C(=O)CCCOCCOCCO [Compound 9, (E)-6-(2-(2-hydroxyethoxy)ethoxy)-3-oxo-2-((6-(piperidin-1-yl)naphthalen-2-yl)methylene)hexanenitrile]
Fold Increase @ 450 nm: 10.16
Fold Increase @ 488 nm: 9.11

N#C/C(=C\c1ccc2cc(N3CCC3)ccc2c1)C(=O)NCC(O)CO (centres unmarked) [Compound 10, (E)-3-(6-(azetidin-1-yl)naphthalen-2-yl)-2-cyano-N-(2,3-dihydroxypropyl)acrylamide]
Fold Increase @ 450 nm: 21.98
Fold Increase @ 488 nm: 19.13

— patent US20240325572A1, “N-HETEROCYCLYL SUBSTITUTED 2-CYANO-3-(NAPHTHALEN-2-YL)ACRYLAMIDE DERIVATIVES AS FLUOROPHORS FOR DETECTION OF AMYLOID AND AMYLOID-LIKE PROTEINS FOR DIAGNOSIS OF NEURODEGENERATIVE DISORDERS” (Amydis, Inc., priority 2021, published 2024)
